Tests used:
[1] = Ratio of A1-receptor binding to that of A2-receptor binding
Adenosine A2 receptor = Adenosine A2 receptor (Rattus norvegicus, UniProt P29276+P30543)
Adenosine receptor A1 = target: T1, Adenosine receptor A1 (Rattus norvegicus, UniProt P25099); experiment: Adenosine A1 receptor binding was measured in adenosine deaminase (ADA) pretreated rat cortical membranes using [3H]cyclohexyladenosine in the presence of 2-chloroadenosine
T1 sequence (P25099 whole entry): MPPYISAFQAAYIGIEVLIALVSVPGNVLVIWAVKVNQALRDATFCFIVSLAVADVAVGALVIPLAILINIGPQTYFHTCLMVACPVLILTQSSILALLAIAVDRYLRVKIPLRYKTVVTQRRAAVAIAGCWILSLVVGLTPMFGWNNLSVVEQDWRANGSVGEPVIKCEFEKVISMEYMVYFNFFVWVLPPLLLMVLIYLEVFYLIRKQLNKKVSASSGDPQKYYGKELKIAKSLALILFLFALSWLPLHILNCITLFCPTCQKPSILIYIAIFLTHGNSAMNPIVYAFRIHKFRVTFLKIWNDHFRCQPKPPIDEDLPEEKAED

Rattus norvegicus [2] = species on record: Rattus norvegicus; experiment: Effective concentration required for 25% decrease in heart rate in perfused working heart model was determined
Rattus norvegicus [3] = species on record: Rattus norvegicus; experiment: Effective concentration required for 25% increase in coronary flow(CF) in perfused working heart model was determined; assay type: functional

Ratio [1] | Ki (Adenosine A2 receptor) [nM] | Ki (Adenosine receptor A1) [nM] | Compound | EC25 (Rattus norvegicus [2]) [nM] | EC25 (Rattus norvegicus [3]) [nM]
140 | 9 | 1260 | CCNC(=O)[C@H]1O[C@@H](n2cnc3c(N)nc(NCCc4ccc(CCC(=O)OC)cc4)nc32)[C@H](O)[C@@H]1O |  | 
 |  |  | CCNC(=O)[C@H]1O[C@@H](n2cnc3c(N)ncnc32)[C@H](O)[C@@H]1O [NECA] | 60 | 5
201 | 7.5 | 1510 | CCNC(=O)[C@H]1OC(n2cnc3c(N)nc(NCCc4ccc(Cl)cc4)nc32)[C@H](O)[C@@H]1O (stereo partly specified) |  | 
 | 71 |  | Nc1nc(Nc2ccccc2)nc2c1ncn2[C@@H]1O[C@H](CO)[C@@H](O)[C@H]1O | > 3000 | 110
170 | 71 | 12100 | CCNC(=O)[C@H]1O[C@@H](n2cnc3c(N)nc(N(C)CCc4ccccc4)nc32)[C@H](O)[C@@H]1O |  | 
101 | 42 | 4250 | CCNC(=O)[C@H]1O[C@@H](n2cnc3c(N)nc(NCCc4ccc(OCC(=O)O)cc4)nc32)[C@H](O)[C@@H]1O |  | 
 |  | 101 | CNC(=O)[C@H]1O[C@@H](n2cnc3c(N)ncnc32)[C@H](O)[C@@H]1O |  | 
 |  | 473 | CCNC(=O)[C@H]1O[C@@H](n2cnc3c(N)nc(NCCc4ccccc4)nc32)[C@H](O)[C@@H]1O | > 3000 | 3
0.002 | 636 | 1.3 | CC(=O)O[C@]1(C(C)=O)CC[C@H]2[C@@H]3C=C(Cl)C4=CC(=O)[C@@H]5C[C@@H]5[C@]4(C)[C@H]3CC[C@@]21C [CYPROTERONE ACETATE] |  | 
 |  |  | CCNC(=O)[C@H]1O[C@@H](n2cnc3c(N)nc(NCCc4ccc(CCC(=O)O)cc4)nc32)[C@H](O)[C@@H]1O [CGS-21680] | > 3000 | 2
154 | 7.7 | 1180 | CCNC(=O)[C@H]1O[C@@H](n2cnc3c(N)nc(NCCc4ccc(F)cc4)nc32)[C@H](O)[C@@H]1O |  | 
109 | 45 | 4880 | CCNC(=O)[C@H]1O[C@@H](n2cnc3c(N)nc(NCCc4ccc(CC(=O)O)cc4)nc32)[C@H](O)[C@@H]1O |  | 
7.6 | 1130 | 8600 | CCNC(=O)[C@H]1O[C@@H](n2cnc3c(N)nc(NCc4ccccc4)nc32)[C@H](O)[C@@H]1O |  | 
69 | 77 | 5350 | CNC(=O)[C@H]1O[C@@H](n2cnc3c(N)nc(NCCc4ccccc4)nc32)[C@H](O)[C@@H]1O |  | 

Compound | Ratio [1] | Ki (Adenosine A2 receptor) [nM] | Ki (Adenosine receptor A1) [nM] | EC25 (Rattus norvegicus [2]) [nM] | EC25 (Rattus norvegicus [3]) [nM]
Nc1nc(NCCc2ccccc2)nc2c1ncn2[C@@H]1O[C@H](C(=O)NC2CC2)[C@@H](O)[C@H]1O | 36 | 14 | 502 |  | 
